Values belong to the compound of their own block, whether it stands above or below them. Peptide text beside a SMILES is read from it.
How the values were obtained:
[1] = tested on: groupe de huit goûteurs expérimentés; assay: Sweetening power judged by a panel of eight experienced tasters against a sucrose reference solution; assay type: in vivo; conditions: weight basis; for Pouvoir édulcorant: Table II, relative to a 2 % sucrose solution; for pouvoir édulcorant, sur une base pondérale: approximate
Procedure, shortened: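 Panel of eight experienced tasters compared aqueous solutions of compound at varying concentrations with a sucrose reference at 2 %, sometimes 5 % and 10 %. Sweetening power is the weight ratio of sucrose to compound at equal sweetness intensity, as judged by a majority of tasters, and depends on the reference concentration.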

[2] = Stability in solution at pH 3 and 70 °C, remaining compound determined by HPLC; assay type: physicochemical; conditions: pH 3, phosphate buffer 1mM; for remaining at 168 h: 1 mm phosphate buffer, after seven days, read-out: composé restant
Description: Les agents édulcorants de la présente invention sont généralement stables. La stabilité est déterminée à pH 3 en solution dans un tampon phosphate 1mM à 70 °C. La concentration du composé restant est déterminée par chromatographie liquide haute pression (HPLC). Par exemple, après six jours dans de telles conditions, on retrouve encore la moitié du composé de l'exemple 14 dans lequel X4 est CN, X3, X5, R1, R3 et R4 sont H, A est N, et R2 est (S) CH (CH3) C6H5. On améliore la stabilité lorsque l'on remplace l'atome d'hydrogène de R1 par CH3. Ainsi, après sept jours dans les mêmes conditions , on retrouve encore 88 % du composé de l'exemple 31 dans lequel X3 et X5 sont Cl, X4, R3 et R4 sont H, A est N, R1 est CH3, et R2 est CH2C6H5. De la même manière, toujours après sept jours et dans les mêmes conditions, on retrouve 86 % du composé de l'exemple 33 dans lequel X4 est CN, X3, X5, R3 et R4 sont H, A est N, R1 est CH3, et R2 est CH2C6H5.

[3] = cited from earlier work
[4] = by comparison with a 2 % sucrose solution
[5] = by comparison with a 5 % sucrose solution
[6] = by comparison with a 10 % sucrose solution

remaining at 168 h [2]: 86%
Compound: CN(Cc1ccccc1)C(=Nc1ccc(C#N)cc1)NCC(=O)O [Exemple 33, acide N-[N-méthyl-N-benzylamino(4-cyanophénylimino)méthyl]-2-aminoéthanoique]
Pouvoir édulcorant [1]: 3000 | pouvoir édulcorant, sur une base pondérale [1, 4]: ~3 000 fois celui du saccharose | pouvoir édulcorant, sur une base pondérale [1, 5]: ~1800 times sucrose | pouvoir édulcorant, sur une base pondérale [1, 6]: ~1 200 fois celui du saccharose

Compound: OC[C@H]1O[C@H](O[C@]2(CCl)O[C@H](CCl)[C@@H](O)[C@@H]2O)[C@H](O)[C@@H](O)[C@H]1Cl [Trichlorogalactosucrose]
Pouvoir sucrant (saccharose = 1) [3]: 2000

Compound: COC(=O)[C@H](Cc1ccccc1)NC(=O)[C@@H](N)CC(=O)O [Aspartame] (H-Asp-Phe-OMe)
Pouvoir sucrant (saccharose = 1) [3]: 200

composé restant ([2]; after six days): la moitié
Compound: C[C@H](NC(=Nc1ccc(C#N)cc1)NCC(=O)O)c1ccccc1 [Exemple 14, acide N-[N-(S)-α-méthylbenzylamino (4-cyanophénylimino)méthyl]-2-aminoéthanoïque]
Pouvoir édulcorant [1]: 28000 | pouvoir édulcorant, sur une base pondérale [1, 4]: ~28 000 fois celui du saccharose | pouvoir édulcorant, sur une base pondérale [1, 5]: ~20 000 fois celui du saccharose | pouvoir édulcorant, sur une base pondérale [1, 6]: ~10 000 fois celui du saccharose

remaining at 168 h [2]: 88%
Compound: CN(Cc1ccccc1)C(=Nc1cc(Cl)cc(Cl)c1)NCC(=O)O [Exemple 31, acide N-[N-méthyl-N-benzylamino (3,5-dichlorophénylimino)méthyl]-2-aminoéthanoïque]
Pouvoir édulcorant [1]: 20000 | pouvoir édulcorant, sur une base pondérale [1, 4]: ~20 000 fois celui du saccharose

Compound: C[C@@H](NC(=O)[C@@H](N)CC(=O)O)C(=O)NC1C(C)(C)SC1(C)C [Alitame]
Pouvoir sucrant (saccharose = 1) [3]: 2000

Compound: COc1ccc(CCC(=O)c2c(O)cc(O[C@@H]3O[C@H](CO)[C@@H](O)[C@H](O)[C@H]3O[C@@H]3O[C@@H](C)[C@H](O)[C@@H](O)[C@H]3O)cc2O)cc1O [Néohespéridine dihydrochalcone]
Pouvoir sucrant (saccharose = 1) [3]: 1000

Compound: O=C1NS(=O)(=O)c2ccccc21 [Saccharine]
Pouvoir sucrant (saccharose = 1) [3]: 400

Compound: OC[C@@H](O)[C@H](O)[C@@H](O)CO [Xylitol]
Pouvoir sucrant (saccharose = 1) [3]: 1

Compound: Glycyrrhizine
Pouvoir sucrant (saccharose = 1) [3]: 50

Compound: Cyclamate de sodium
Pouvoir sucrant (saccharose = 1) [3]: 30

Compound: N#Cc1ccc(N=C(NCC(=O)O)NC2CCc3ccccc32)cc1 (stereo not shown) [Exemple 70, acide N-[N-(1-indanyl)amino(4-cyanophénylimino)méthyl]-2-aminoéthanoïque]
Pouvoir édulcorant [1]: 5000 | pouvoir édulcorant, sur une base pondérale [1, 4]: ~5 000 fois celui du saccharose

Compound: CC(=O)c1ccc(N=C(NCC(=O)O)N[C@@H](C)c2ccccc2)cc1 [Exemple 15, acide N-[N-(S) -α-méthylbenzylamino (4-acétylphénylimino)méthyl]-2-aminoéthanoïque]
Pouvoir édulcorant [1]: 800 | pouvoir édulcorant, sur une base pondérale [1, 4]: ~800 fois celui du saccharose

Compound: O=C(O)CNC(=NS(=O)(=O)c1ccccc1)Nc1cccc(Cl)c1 [Exemple 79, acide N-[phénylsulfonylimino (3-chlorophénylamino)méthyl]-2-aminoéthanoique]
Pouvoir édulcorant [1]: 17000 | pouvoir édulcorant, sur une base pondérale [1, 4]: ~17 000 fois celui du saccharose

Compound: CC(C)N(C)C(=Nc1ccc(C#N)cc1)NCC(=O)O [Exemple 32, acide N-[N-méthyl-N-1-méthyléthyl-amino(4-cyanophénylimino)méthyl]-2-aminoéthanoïque]
Pouvoir édulcorant [1]: 80 | pouvoir édulcorant, sur une base pondérale [1, 4]: ~80 fois celui du saccharose

Compound: O=C(O)CNC(=Nc1cc(Cl)cc(Cl)c1)Nc1cc(Cl)cc(Cl)c1 [Exemple 81, acide N-[N-3,5-dichlorophénylamino (3,5-dichlorophénylimino)méthyl]-2-aminoéthanoïque]
Pouvoir édulcorant [1]: 1000 | pouvoir édulcorant, sur une base pondérale [1, 4]: ~1 000 fois celui du saccharose

Compound: CC1=CC(=O)NS(=O)(=O)O1 [Acésulfame-K]
Pouvoir sucrant (saccharose = 1) [3]: 200

Compound: N#Cc1ccc(N=C(NCC(=O)O)N2CCCC2)cc1 [Exemple 82, acide N-[N,N-(tétraméthylène)amino (4-cyanophénylimino)méthyl]-2-aminoéthanoïque]
Pouvoir édulcorant [1]: 100 | pouvoir édulcorant, sur une base pondérale [1, 4]: ~100 fois celui du saccharose

Compound: N#Cc1ccc(N=C(NCC(=O)O)N2CCCCC2)cc1 [Exemple 83, acide N-[N,N-(pentaméthylène)amino (4-cyanophénylimino)méthyl]-2-aminoéthanoïque]
Pouvoir édulcorant [1]: 200 | pouvoir édulcorant, sur une base pondérale [1, 4]: ~200 fois celui du saccharose

Compound: C[C@H](NC(=Nc1cccc(Cl)c1)NCC(=O)O)c1ccccc1 [Exemple 6, acide N-[N-(S)-α-méthylbenzylamino (3-chlorophénylimino)méthyl]-2-aminoéthanoïque]
Pouvoir édulcorant [1]: 30000 | pouvoir édulcorant, sur une base pondérale [1, 4]: ~30 000 fois celui du saccharose

Compound: O=C(O)CNC(=Nc1cc(Cl)cc(Cl)c1)NC1CCCCCC1 [Exemple 44, acide N-[N-cycloheptylamino (3,5-dichlorophénylimino)méthyl]-2-aminoéthanoïque]
Pouvoir édulcorant [1]: 20000 | pouvoir édulcorant, sur une base pondérale [1, 4]: ~20 000 fois celui du saccharose

Compound: C[C@H](NC(=Nc1ccc(Cl)c(Cl)c1)NCC(=O)O)c1ccccc1 [Exemple 23, acide N-[N-(S) -α-méthylbenzylamino (3,4-dichlorophénylimino)méthyl]-2-aminoéthanoïque]
Pouvoir édulcorant [1]: 17000 | pouvoir édulcorant, sur une base pondérale [1, 4]: ~17 000 fois celui du saccharose

Compound: O=C(O)CNC(=Nc1ccccc1)NC1CCCCC1 [Exemple 42, acide N-[N-cyclohexylamino(phénylimino)méthyl]-2-aminoéthanoïque]
Pouvoir édulcorant [1]: 100 | pouvoir édulcorant, sur une base pondérale [1, 4]: ~100 fois celui du saccharose

Compound: C=C1C[C@@]23CC[C@H]4[C@@](C)(CCC[C@@]4(C)C(=O)O[C@@H]4O[C@H](CO)[C@@H](O)[C@H](O)[C@H]4O)[C@@H]2CC[C@]1(O[C@@H]1O[C@H](CO)[C@@H](O)[C@H](O)[C@H]1O[C@@H]1O[C@H](CO)[C@@H](O)[C@H](O)[C@H]1O)C3 [Stévioside]
Pouvoir sucrant (saccharose = 1) [3]: 300

Compound: Cc1ccc(NC(=Nc2ccc(C#N)cc2)NCC(=O)O)cc1 [Exemple 66, acide N-[N-(4-méthylphényl)amino(4-cyanophénylimino)méthyl]--2-aminoéthanoïque]
Pouvoir édulcorant [1]: 7000 | pouvoir édulcorant, sur une base pondérale [1, 4]: ~7 000 fois celui du saccharose

Compound: CSc1cccc(N=C(NCC(=O)O)N[C@@H](C)c2ccccc2)c1 [Exemple 10, acide N-[N-(S)-a-méthylbenzylamino (3-méthylmercaptophénylimino)méthyl]-2-aminoéthanoïque]
Pouvoir édulcorant [1]: 5 500 | pouvoir édulcorant, sur une base pondérale [1, 4]: ~5 500 fois celui du saccharose
